Source: US7723329B2, “Substituted-3-sulfonylindazole derivatives as 5-hydroxytryptamine-6 ligands” (Wyeth LLC, priority 2005, dated 2010)
Counter-ions that a name gives are not always drawn.

Target: T1, human cloned 5-HT6 receptors (Homo sapiens, UniProt P50406)
T1 construct: expressed in transfected cells; host or cells: HeLa cells
Test: 5-HT6 binding affinity, [3H]-LSD displacement
Conditions: membranes of Hela cells expressing human cloned 5-HT6 receptors; [3H]-LSD 3.0 nM; 120 minutes at room temperature
Experimental: The affinity of test compounds for the serotonin 5-HT6 receptor was evaluated in the following manner. Cultured Hela cells expressing human cloned 5-HT6 receptors were harvested and centrifuged at low speed (1,000×g) for 10.0 minutes to remove the culture media. The harvested cells were suspended in half volume of fresh physiological phosphate buffered saline solution and recentrifuged at the same speed. This operation was repeated. The collected cells were then homogenized in ten volumes of 50 mM Tris.HCl (pH 7.4) and 0.5 mM EDTA. The homogenate was centrifuged at 40,000×g for 30.0 min and the precipitate was collected. The obtained pellet was resuspended in 10 volumes of Tris.HCl buffer and recentrifuged at the same speed. The final pellet was suspended in a small volume of Tris.HCl buffer and the tissue protein content was determined in aliquots of 10-25 μl volumes. […] The volume of the suspended cell membranes was adjusted to give a tissue protein concentration of 1.0 mg/ml of suspension. The prepared membrane suspension (10 times concentrated) was aliquoted in 1.0 ml volumes and stored at −70° C. until used in subsequent binding experiments.
The bound complex caught on the filter disk was allowed to air dry and the radioactivity is measured in a Packard TopCount® equipped with six photomultiplier detectors, after the addition of 40.0 μl Microscint®-20 scintillant to each shallow well. The unifilter plate was heat-sealed and counted in a PackardTopCount® with a tritium efficiency of 31.0%.
Specific binding to the 5-HT6 receptor was defined as the total radioactivity bound less the amount bound in the presence of 10.0 μM unlabeled methiothepin. Binding in the presence of varying concentrations of test compound was expressed as a percentage of specific binding in the absence of test compound. The results were plotted as log % bound versus log concentration of test compound. […] A linear regression line of data points was plotted, from which the IC50 value is determined and the Ki value is determined based upon the following equation: Ki=IC50/(1+L/KD) where L was the concentration of the radioactive ligand used and KD is the dissociation constant of the ligand for the receptor, both expressed in nM.

T1 sequence (P50406 whole entry): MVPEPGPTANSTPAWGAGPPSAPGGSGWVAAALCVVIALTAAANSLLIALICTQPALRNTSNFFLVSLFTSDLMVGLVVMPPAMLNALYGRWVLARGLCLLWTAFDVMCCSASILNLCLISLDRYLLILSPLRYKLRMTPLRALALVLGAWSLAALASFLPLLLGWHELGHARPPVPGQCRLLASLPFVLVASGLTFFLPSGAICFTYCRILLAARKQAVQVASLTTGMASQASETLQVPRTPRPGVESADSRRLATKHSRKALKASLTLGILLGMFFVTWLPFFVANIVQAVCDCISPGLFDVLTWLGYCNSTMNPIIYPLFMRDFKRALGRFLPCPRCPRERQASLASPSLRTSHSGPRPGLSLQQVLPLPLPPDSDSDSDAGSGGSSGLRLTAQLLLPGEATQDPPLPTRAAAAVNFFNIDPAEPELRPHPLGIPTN

Row | SMILES | Ki [nM]
1 | O=S(=O)(c1ccccc1)c1n[nH]c2ccc(OCCN3CCOCC3)cc12 [Example 10, 3-Benzenesulfonyl-5-(2-morpholin-4-yl-ethoxy)-1H-indazole] | > 45
2 | NCCCOc1ccc2[nH]nc(S(=O)(=O)c3cccc4ccccc34)c2c1 [Example 26, 3-[3-(Naphthalene-1-sulfonyl)-1H-indazol-5-yloxy]-propylamine] | 0.01 to 10
3 | CCN(CC)CCCOc1ccc2[nH]nc(S(=O)(=O)c3cccc4ccccc34)c2c1 [Example 18, Diethyl-{3-[3-(naphthalene-1-sulfonyl)-1H-indazol-5-yloxy]-propyl}-amine] | 0.01 to 10
4 | CCCCNCCOc1ccc2[nH]nc(S(=O)(=O)c3cccc4ccccc34)c2c1 [Example 34, Butyl-{2-[3-(naphthalene-1-sulfonyl)-1H-indazol-5-yloxy]-ethyl}-amine] | 0.01 to 10
5 | CCNCCOc1ccc2[nH]nc(S(=O)(=O)c3cccc4ccccc34)c2c1 [Example 32, Ethyl-{2-[3-(naphthalene-1-sulfonyl)-1H-indazol-5-yloxy]-ethyl}-amine] | 0.01 to 10
6 | O=S(=O)(c1cccc2ccccc12)c1n[nH]c2c(OCCN3CCCCC3)cccc12 [Example 80] | 0.01 to 10
7 | CNCCOc1ccc2c(c1)c(S(=O)(=O)c1cccc3ccccc13)nn2Cc1ccccc1 [Example 48, {2-[1-Benzyl-3-(naphthalene-1-sulfonyl)-1H-indazol-5-yloxy]-ethyl}-methyl-amine] | 26 to 35
8 | NCCOc1cccc2c(S(=O)(=O)c3cccc4ccccc34)nn(Cc3cccc(Cl)c3)c12 [Example 69, (2-{[1-(3-Chlorobenzyl)-3-(1-naphthylsulfonyl)-1-H-indazol-7-yl]oxy}ethyl) amine] | 26 to 35
9 | O=S(=O)(c1cccc2ccccc12)c1n[nH]c2c(OCCN3CCCC3)cccc12 [Example 81] | 0.01 to 10
10 | CCNCCOc1cccc2c(S(=O)(=O)c3cccc4ccccc34)nn(C)c12 [Example 95] | 0.01 to 10
11 | O=S(=O)(c1cccc2ccccc12)c1n[nH]c2ccc(OCCN3CCCC3)cc12 [Example 37, 3-(Naphthalene-1-sulfonyl)-5-(2-pyrrolidin-1-yl-ethoxy)-1H-indazole] | 0.01 to 10
12 | O=S(=O)(c1ccccc1)c1n[nH]c2ccc(OCCNC3CC3)cc12 [Example 8, [2-(3-Benzenesulfonyl-1H-indazol-5-yloxy)-ethyl]-cyclopropyl-amine] | 26 to 35

Next, values leading:

Row | Ki [nM] | SMILES
13 | > 45 | O=S(=O)(c1cccc2ccccc12)c1nn(Cc2cccc(Cl)c2)c2c(OCCN3CCCC3)cc(F)cc12 [Example 112]
14 | 11 to 25 | NCCNc1ccc2c(S(=O)(=O)c3cccc4ccccc34)n[nH]c2c1 [Example 170, N1-[3-(Naphthalene-1-sulfonyl)-1H-indazol-6-yl]-ethane-1,2-diamine dihydrochloride]
15 | 26 to 35 | Cn1nc(S(=O)(=O)c2ccccc2)c2cccc(OCCN3CCCC3)c21 [Example 104]
16 | 36 to 45 | O=S(=O)(c1cccc2ccccc12)c1n[nH]c2c(OCCCN3CCCCC3)cccc12 [Example 138]
17 | > 45 | CN(C)CCOc1ccc2c(S(=O)(=O)c3cccc4ccccc34)n[nH]c2c1 [Example 148]
18 | > 45 | CNCCCOc1cccc2c(S(=O)(=O)c3cccc4ccccc34)nn(Cc3cccc(Cl)c3)c12 [Example 128]
19 | 11 to 25 | NCCNc1cccc2c(S(=O)(=O)c3cccc4ccccc34)n[nH]c12 [Example 161, N1-[3-(Naphthalene-1-sulfonyl)-1H-indazol-7-yl]-ethane-1,2-diamine dihydrochloride]
20 | 0.01 to 10 | COc1cc(OCCN2CCCCC2)c2c(c1)c(S(=O)(=O)c1cccc3ccccc13)nn2Cc1cccc(Cl)c1 [Example 122]
21 | 11 to 25 | NCCNCc1ccc2[nH]nc(S(=O)(=O)c3cccc4ccccc34)c2c1 [Example 155, N{[3-(1-Naphthylsulfonyl)-1H-indazol-5yl]methyl}ethane-1.2-diamine]
22 | > 45 | O=C(c1ccc2[nH]nc(S(=O)(=O)c3cccc4ccccc34)c2c1)N1CCNCC1 [Example 202, 3-(1-Naphthylsulfonyl)-5-(piperazin-1 ylcarbonyl)-1H-indazole]
